Source: ChEMBL document CHEMBL3774368, “1,2,4-Triazolyl octahydropyrrolo[2,3-b]pyrroles: A new series of potent and selective dopamine D3 receptor antagonists” (Bioorg Med Chem, 2016)
pKi: −log10 of the molar value.

Experiments:
[1] = target: D(3) dopamine receptor (Homo sapiens, UniProt P35462); test: Displacement of [3H]-spiperone from human dopamine D3 receptor expressed in CHO-K1 cell membranes after 90 mins by liquid scintillation counter method
[2] = target: D(2) dopamine receptor (Homo sapiens, UniProt P14416); test: Displacement of [3H]-spiperone from human dopamine D2 receptor expressed in CHO-K1 cell membranes after 120 mins by liquid scintillation counter method
D(2) dopamine receptor, sequence (P14416 whole entry): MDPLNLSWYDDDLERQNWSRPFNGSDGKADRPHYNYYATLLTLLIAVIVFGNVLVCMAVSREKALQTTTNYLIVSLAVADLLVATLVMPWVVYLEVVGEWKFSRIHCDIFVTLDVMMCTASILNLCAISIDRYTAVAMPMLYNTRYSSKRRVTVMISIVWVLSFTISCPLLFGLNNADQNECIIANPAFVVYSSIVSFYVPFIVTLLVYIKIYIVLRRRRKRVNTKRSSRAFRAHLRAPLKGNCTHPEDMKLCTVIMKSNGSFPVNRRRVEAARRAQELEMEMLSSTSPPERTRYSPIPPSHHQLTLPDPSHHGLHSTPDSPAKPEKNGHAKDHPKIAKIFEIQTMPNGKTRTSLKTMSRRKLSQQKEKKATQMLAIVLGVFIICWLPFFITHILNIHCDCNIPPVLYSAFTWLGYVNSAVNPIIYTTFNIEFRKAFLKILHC

D(3) dopamine receptor, sequence (P35462 whole entry): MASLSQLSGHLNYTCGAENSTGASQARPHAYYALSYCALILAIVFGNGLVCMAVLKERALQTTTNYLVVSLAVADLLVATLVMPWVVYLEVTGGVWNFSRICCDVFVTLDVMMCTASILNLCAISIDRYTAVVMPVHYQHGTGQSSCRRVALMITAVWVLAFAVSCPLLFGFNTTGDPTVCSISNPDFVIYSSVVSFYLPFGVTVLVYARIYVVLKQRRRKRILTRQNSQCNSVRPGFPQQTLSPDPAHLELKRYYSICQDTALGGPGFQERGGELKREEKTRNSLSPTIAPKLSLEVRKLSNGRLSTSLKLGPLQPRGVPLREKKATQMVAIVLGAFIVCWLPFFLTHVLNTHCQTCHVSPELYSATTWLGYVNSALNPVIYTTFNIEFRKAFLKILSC

Compound | pKi [1] | pKi [2]
Cn1c(SCCCN2CC3CCN(c4cccc(C(F)(F)F)c4)C3C2)nnc1-c1cnccn1 (racemic) | 9.70 | 7.50
Cn1c(SCCCN2CC3CCN(c4ccc(F)cc4)C3C2)nnc1C1CCCCC1 (racemic) | 7.90 | 6.10
Cn1c(SCCCN2CC3CCN(c4ccc(C(F)(F)F)cc4)C3C2)nnc1C1CCCC1 (racemic) | 9.40 | 
Cn1c(SCCCN2CC3CCN(c4ccc(C(F)(F)F)cc4)C3C2)nnc1C1CCCCC1 (racemic) | 7.40 | 5.20
Cn1c(SCCCN2CC3CCN(c4ccc(C(F)(F)F)cc4)C3C2)nnc1-c1ccncc1 (racemic) | 8.70 | 6.40
Cn1c(SCCCN2CC3CCN(c4c(F)cc(F)cc4F)C3C2)nnc1-c1cnccn1 (racemic) | 9.00 | 6.20
Cn1c(SCCCN2CC3CCN(c4ccc(C(F)(F)F)cc4)C3C2)nnc1-c1ccnnc1 (racemic) | 7.90 | 6.20
Cc1ncoc1-c1nnc(SCCCN2CC3CCN(c4ccc(C(F)(F)F)cc4)C3C2)n1C (racemic) | 8.80 | 
Cn1c(SCCCN2CC3CCN(c4ccc(F)cc4)C3C2)nnc1-c1ccn(C)c(=O)c1 (racemic) | 8.10 | 6.40
Cc1ncoc1-c1nnc(SCCCN2CC3CCN(c4ccc(F)cc4)C3C2)n1C (racemic) |  | 6.70
Cn1c(SCCCN2CC3CCN(c4ccc(F)cc4F)C3C2)nnc1-c1cnccn1 (racemic) | 8.00 | 6.40
Cn1c(SCCCN2CC3CCN(c4ccccc4)C3C2)nnc1C1CCOCC1 (racemic) | 7.90 | 
Cn1c(SCCCN2CC3CCN(c4ccc(C(F)(F)F)cc4)C3C2)nnc1-c1ccc(=O)n(C)c1 (racemic) | 8.20 | 
Cn1c(SCCCN2CC3CCN(c4cccc(F)c4)C3C2)nnc1-c1cnccn1 (racemic) | 8.30 | 6.60
Cn1c(SCCCN2CC3CCN(c4cccc(OC(F)(F)F)c4)C3C2)nnc1-c1cnccn1 (racemic) | 9.50 | 
Cn1c(SCCCN2CC3CCN(c4ccc(F)cc4C(F)(F)F)C3C2)nnc1-c1cnccn1 (racemic) | 7.60 | 
Cc1ccccc1N1CCC2CN(CCCSc3nnc(-c4cnccn4)n3C)CC21 (racemic) | 6.90 | 
Cn1c(SCCCN2CC3CCN(c4ccc(F)cc4)C3C2)nnc1-c1cnccn1 (racemic) | 8.70 | 6.70
Cn1c(SCCCN2CC3CCN(c4ccc(F)cc4)C3C2)nnc1-c1cc[nH]c(=O)c1 (racemic) |  | 6.20

Compound | pKi [1] | pKi [2]
Cn1cc(-c2nnc(SCCCN3CC4CCN(c5ccc(C(F)(F)F)cc5)C4C3)n2C)cn1 (racemic) |  | 6.70
Cc1ccc(N2CCC3CN(CCCSc4nnc(-c5cnccn5)n4C)CC32)cc1 (racemic) | 8.10 | 6.20
Cn1c(SCCCN2CC3CCN(c4ccc(C#N)cc4)C3C2)nnc1-c1cnccn1 (racemic) | 6.90 | 5.20
Cn1c(SCCCN2CC3CCN(c4ccccc4C(F)(F)F)C3C2)nnc1-c1cccnc1 (racemic) |  | 6.10
Cn1c(SCCCN2CC3CCN(c4ccccc4C(F)(F)F)C3C2)nnc1-c1ccncc1 (racemic) | 8.30 | 6.60
Cn1c(SCCCN2CC3CCN(c4ccc(C(F)(F)F)cc4)C3C2)nnc1N1CCOCC1 (racemic) |  | 6.70
Cn1c(SCCCN2CC3CCN(c4ccc(OC(F)(F)F)cc4)C3C2)nnc1-c1cnccn1 (racemic) | 7.90 | 6.50
Cc1ncoc1-c1nnc(SCCCN2CC3CCN(c4ccc(OC(F)(F)F)cc4)C3C2)n1C (racemic) |  | 6.20
Cn1c(SCCCN2CC3CCN(c4ccccc4C(F)(F)F)C3C2)nnc1-c1ccccn1 (racemic) | 8.30 | 6.50
Cc1cc(-c2nnc(SCCCN3CC4CCN(c5ccc(C(F)(F)F)cc5)C4C3)n2C)on1 (racemic) | 8.60 | 6.80
Cc1ncoc1-c1nnc(SCCCN2CC3CCN(c4cccc(C#N)c4)C3C2)n1C (racemic) |  | 7.30
Cn1c(SCCCN2CC3CCN(c4ccc(C(F)(F)F)cc4)C3C2)nnc1-c1ccccn1 (racemic) |  | 6.40
Cn1c(SCCCN2CC3CCN(c4ccc(C(F)(F)F)cc4)C3C2)nnc1-c1cncnc1 (racemic) | 7.30 | 5.90
Cn1c(SCCCN2CC3CCN(c4ccc(C(F)(F)F)cc4)C3C2)nnc1-c1cccnn1 (racemic) | 7.30 | 6.50
Cc1ncoc1-c1nnc(SCCCN2CC3CCN(c4ccccc4)C3C2)n1C (racemic) |  | 6.60
Cc1ncoc1-c1nnc(SCCCN2CC3OCCN(c4ccc(C(F)(F)F)cc4)C3C2)n1C (racemic) | 7.50 | 
CC(C)Oc1ccccc1N1CCC2CN(CCCSc3nnc(-c4cnccn4)n3C)CC21 (racemic) | 8.00 | 6.60
Cn1c(SCCCN2CC3CCN(c4ccc(C(F)(F)F)cc4)C3C2)nnc1-c1cccnc1 (racemic) | 8.50 | 
COc1ccccc1N1CCC2CN(CCCSc3nnc(-c4cnccn4)n3C)CC21 (racemic) | 7.80 | 6.50

Compound | pKi [1] | pKi [2]
Cn1c(SCCCN2CC3CCN(c4ccccc4C#N)C3C2)nnc1-c1cnccn1 (racemic) | 8.20 | 6.70
Cn1c(SCCCN2CC3CCN(c4cccc(C#N)c4)C3C2)nnc1-c1cnccn1 (racemic) | 8.70 | 7.00
COc1cc(N2CCC3CN(CCCSc4nnc(-c5cnccn5)n4C)CC32)ccc1F (racemic) | 8.50 | 6.30
Cn1c(SCCCN2CC3CCN(c4c(F)cccc4F)C3C2)nnc1-c1cnccn1 (racemic) |  | 6.20
Cc1cccc(N2CCC3CN(CCCSc4nnc(-c5cnccn5)n4C)CC32)c1 (racemic) | 8.40 | 
Cc1ncoc1-c1nnc(SCCCN2CC3CCN(c4ccccc4OC(F)(F)F)C3C2)n1C (racemic) | 9.00 | 7.70
Cn1c(SCCCN2CC3CCN(c4c(F)cccc4C(F)(F)F)C3C2)nnc1-c1cnccn1 (racemic) | 8.40 | 6.40
Cc1ncoc1-c1nnc(SCCCN2CC3CCCN(c4ccc(C(F)(F)F)cc4)C3C2)n1C (racemic) | 7.90 | 
Cc1ncoc1-c1nnc(SCCCN2CC3CCN(c4c(F)cccc4F)C3C2)n1C (racemic) | 8.60 | 
Cc1ncoc1-c1nnc(SCCCN2CC3CCN(c4ccc(C(F)(F)F)cc4)C3C2)n1C (stereo in doubt; 7a) | 8.70 | 
Cc1ncoc1-c1nnc(SCCCN2CC3CCN(c4ccc(C(F)(F)F)cc4)C3C2)n1C (stereo in doubt; 7b) | 8.50 | 
Cc1ncoc1-c1nnc(SCCCN2CC3CCN(c4ccc(F)cc4)C3C2)n1C (stereo in doubt; 9b) |  | 6.70
Cn1c(SCCCN2CC3CCN(c4ccc(C(F)(F)F)cc4)C3C2)nnc1-c1cnccn1 (stereo in doubt; 17a) |  | 6.30
Cn1c(SCCCN2CC3CCN(c4ccccc4C(F)(F)F)C3C2)nnc1-c1cccnc1 (stereo in doubt; 52b) |  | 5.90
Cn1c(SCCCN2CC3CCN(c4ccc(C(F)(F)F)cc4)C3C2)nnc1N1CCOCC1 (stereo in doubt; 61a) | 8.50 | 
Cn1c(SCCCN2CC3CCN(c4ccccc4)C3C2)nnc1C1CCOCC1 (stereo in doubt; 62b) | 7.60 | 
Cn1c(SCCCN2CC3CCN(c4ccc(C(F)(F)F)cc4)C3C2)nnc1C1CCCC1 (stereo in doubt; 64a) | 9.70 | 
Cn1c(SCCCN2CC3CCN(c4ccc(C(F)(F)F)cc4)C3C2)nnc1C1CCCCC1 (stereo in doubt; 65a) | 7.90 | 
